From US10457689B2, “Ammonium derivatives, a process for their preparation and pharmaceutical compositions containing them” (LES LABORATOIRES SERVIER, priority 2016, dated 2019) come the findings set out here.

In data set [1] the test system is H929 multiple myeloma tumour line. Nature of the data set: In vitro cytotoxicity (MTT). The note with it: 48 hours exposure. It is filed as cell-based. As for the experimental part:
The cytotoxicity studies were carried out on the H929 multiple myeloma tumour line.
The cells are distributed onto microplates and exposed to the test compound for 48 hours.
The cell viability is then quantified by a colorimetric assay, the Microculture Tetrazolium Assay (Carmichael et al. Cancer Res. 1987, 47, 936-942).

Data set [2] can be described thus: Solubility test Method 2. It is filed as physicochemical. To be noted: Method 2: aqueous phosphate buffer 67.7 mM, pH 7.4, room temperature. On the procedure:
Samples (40 mg/mL) were diluted in aqueous phosphate buffer (67.7 mM, with pH adjusted at 7.4) used for in vivo studies. Samples were shaked at room temperature, then filtered. The solubilized fraction was quantified by LC-MS-MS analysis.

The target in data set [3] is Mcl-1 protein (Homo sapiens, UniProt Q07820). Nature of the data set: Inhibition of Mcl-1 by the fluorescence polarisation technique. It is filed as binding. To be noted: fluorescence polarisation test; read-out: IC50 (M) Mcl-LFP. On the procedure: The relative, binding potency of each compound was determined via Fluorescence Polarisation (FP). The method utilised a Fluorescein labelled ligand (Fluorescein-βAla-Ahx-A-REIGAQLRRMADDLNAQY-OH; mw 2,765) which binds to the Mcl-1 protein (such that Mcl-1 corresponds to the UniProtKB® primary accession number: Q07820) leading to an increased anisotropy measured in milli-polarisation (mP) units using a reader. The addition of a compound which binds competitively to the same site as the ligand will result in a greater proportion of unbound ligand in the system indicated by a decrease in mP units.
An 11 point serial dilution of each compound was prepared in DMSO and 2 μl transferred into flat bottomed, low binding, 384-well plate (final DMSO concentration 5%), 38 μl of buffer (10 mM 4-(2-hydroxyethyl)-1-piperazineethanesolfonic acid [HEPES], 150 mM NaCl, 0.05% Tween 20, pH 7.4), containing the Fluorescein labelled ligand (final concentration 1 nM) and Mcl-1 protein (final concentration 5 nM) was then added.
Assay plates were incubated ˜2 hours at room temperature before FP was measured on a […] Synergy2 reader (Ex. 528 nm, Em. 640 nm, Cut off 510 nm) and mP units calculated. The binding of increasing doses of test compound was expressed as a percentage reduction in mP compared to a window established between ‘5% DMSO only’ and ‘100% inhibition’ controls. 11-point dose response curves were plotted with XL-Fit software using a 4-Parameter Logistic Model (Sigmoidal Dose-Response Model) and the inhibitory concentrations that gave a 50% reduction in mP (IC50) were determined.
(Fluorescence polarisation rises when a labelled molecule tumbles more slowly, as on binding a larger partner.)

Data set [4] can be described thus: Solubility test Method 1. To be noted: Method 1: 30% propylene glycol in water, shaked 72 hours at room temperature. It counts as physicochemical. As for the experimental part:
Sample solutions (around 16.7 mg/ml) in propylene glycol were diluted with water (30% propylene glycol). Then, samples were shaked for 72 hours at room temperature. After shaking period, samples were centrifuged, then the liquid phase was filtered and analyzed using HPLC coupled to UV detection. To determine the actual concentration a 5-point calibration curve was established.

[5] abbreviates: Homo sapiens, NCI-H929, H929 cells.

Converted amounts (≈) assume the structure as drawn. Counter-ions that a name gives are not always drawn.

Chain of Mcl-1 protein (Q07820 whole entry): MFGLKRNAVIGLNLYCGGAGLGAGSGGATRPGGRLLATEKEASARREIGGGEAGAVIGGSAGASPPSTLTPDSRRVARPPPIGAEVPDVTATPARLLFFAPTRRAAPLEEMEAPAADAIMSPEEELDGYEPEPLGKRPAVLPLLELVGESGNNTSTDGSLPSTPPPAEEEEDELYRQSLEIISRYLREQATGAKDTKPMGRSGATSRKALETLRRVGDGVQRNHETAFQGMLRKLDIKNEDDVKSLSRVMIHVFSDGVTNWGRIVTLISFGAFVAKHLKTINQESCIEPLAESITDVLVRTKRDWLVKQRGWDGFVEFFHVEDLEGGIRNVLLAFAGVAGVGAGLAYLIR

`COc1ccccc1-c1nccc(COc2ccccc2CC(Oc2ncnc3sc(-c4ccc(F)cc4)c(-c4ccc(OCC[N+](C)(C)COP(=O)([O-])O)c(Cl)c4C)c23)C(=O)O)n1` [Example 11, {4-[2-(4-{(5Sa)-4-[(1R)-1-carboxy-2-(2-{[2-(2-methoxyphenyl)pyrimidin-4-yl]methoxy}phenyl)ethoxy]-6-(4-fluorophenyl)thieno[2,3-d]pyrimidin-5-yl}-2-chloro-3-methylphenoxy)ethyl](dimethyl)ammonio}methyl hydrogen phosphate]: the IC50 (as a rule, the point on the concentration scale where inhibition reaches its midpoint) in data set [1] (setting [5]) is 39.3 nM; in data set [3], 1.06e-09 M. Also, the solubility (as a rule, how much of the substance goes into solution per volume) in data set [2] was above 35 mg/mL.
Consider `COc1ccccc1-c1nccc(COc2ccccc2C[C@@H](Oc2ncnc3sc(-c4ccc(F)cc4)c(-c4ccc(OCCN5CCN(C)CC5)c(Cl)c4C)c23)C(=O)O)n1` [(2R)-2-{[(5Sa)-5-{3-chloro-2-methyl-4-[2-(4-methylpiperazin-1-yl)ethoxy]phenyl}-6-(4-fluorophenyl)thieno[2,3-d]pyrimidin-4-yl]oxy}-3-(2-{[2-(2-methoxyphenyl)pyrimidin-4-yl]methoxy}phenyl)propanoic acid, reference compound], for which the solubility in data set [4] turned out to be 63.3 µM (≈ 55.4 µg/mL).
Take `COc1ccccc1-c1nccc(COc2ccccc2CC(Oc2ncnc3sc(-c4ccc(F)cc4)c(-c4ccc(OCCN5CC[N+](C)(COC(C)=O)CC5)c(Cl)c4Br)c23)C(=O)O)n1` [Example 25, 1-[(acetyloxy)methyl]-4-[2-(3-bromo-4-{(5Sa)-4-[(1R)-1-carboxy-2-(2-{[2-(2-methoxyphenyl)pyrimidin-4-yl]methoxy}phenyl)ethoxy]-6-(4-fluorophenyl)thieno[2,3-d]pyrimidin-5-yl}-2-chlorophenoxy)ethyl]-1-methylpiperazin-1-ium trifluoroacetate]: the values for the IC50 in data set [1] (H929 cells) and in data set [3] were 1.95 nM and 1.07e-09 M, respectively.
In the case of `COc1ccccc1-c1nccc(COc2ccccc2C[C@@H](Oc2ncnc3sc(-c4ccc(F)cc4)c(-c4ccc(OCCN5CC[N+](C)(COP(=O)([O-])O)CC5)c(Cl)c4C)c23)C(=O)O)n1` [Example 1, {4-[2-(4-{(5Sa)-4-[(1R)-1-carboxy-2-(2-{[2-(2-methoxyphenyl)pyrimidin-4-yl]methoxy}phenyl)ethoxy]-6-(4-fluorophenyl)thieno[2,3-d]pyrimidin-5-yl}-2-chloro-3-methylphenoxy)ethyl]-1-methylpiperazin-1-ium-1-yl}methyl hydrogen phosphate], the IC50 in data set [1] (H929 cells) was 28.4 nM; in data set [3], 1.03e-09 M. Moreover, in data set [4], the solubility was at least 4907 µM.
Regarding `COc1ccccc1-c1nccc(COc2ccccc2CC(Oc2ncnc3sc(-c4ccc(F)cc4)c(-c4ccc(OCCN5CC[N+](C)(COP(=O)([O-])O)CC5)c(Cl)c4Br)c23)C(=O)O)n1` [Example 5, {4-[2-(3-bromo-4-{(5Sa)-4-[(1R)-1-carboxy-2-(2-{[2-(2-methoxyphenyl)pyrimidin-4-yl]methoxy}phenyl)ethoxy]-6-(4-fluorophenyl)thieno[2,3-d]pyrimidin-5-yl}-2-chlorophenoxy)ethyl]-1-methylpiperazin-1-ium-1-yl}methyl hydrogen phosphate], the IC50 in data set [1] (setting [5]) turned out to be 55.4 nM; in data set [3], 1.06e-09 M.
